22 molecules from patent US7141592B2, “Substituted oxadiazolidinediones” (Wyeth, priority 2003, dated 2006) can be followed below.

One may read the inhibition as how much of the control response was suppressed. As usually defined, the IC50 is the concentration that inhibits the measured activity by half.

Chain of human PAI-1 (P05121 24-402): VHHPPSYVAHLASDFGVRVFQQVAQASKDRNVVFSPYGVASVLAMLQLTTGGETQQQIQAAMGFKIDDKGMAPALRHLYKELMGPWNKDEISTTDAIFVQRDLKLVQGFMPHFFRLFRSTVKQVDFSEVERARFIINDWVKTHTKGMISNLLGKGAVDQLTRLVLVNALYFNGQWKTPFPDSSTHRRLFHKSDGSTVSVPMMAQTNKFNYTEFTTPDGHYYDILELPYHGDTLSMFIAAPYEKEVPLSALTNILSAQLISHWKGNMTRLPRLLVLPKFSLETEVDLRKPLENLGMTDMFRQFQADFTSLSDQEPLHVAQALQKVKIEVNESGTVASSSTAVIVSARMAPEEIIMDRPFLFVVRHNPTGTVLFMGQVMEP

The target of one assay is T1, recombinant human plasminogen activator inhibitor-1 (PAI-1) (Homo sapiens, UniProt P05121).
T1 construct: purchased Molecular Innovations, Royal Oak, Mich
T1 sequence (P05121 24-402): as above
Put plainly: Primary screen for the PAI-1 inhibition (chromogenic tPA activity, Spectrozyme-tPA). The class given is biochemical. The conditions noted are these: compound at 100 μM. On the procedure: Test compounds are dissolved in DMSO at a final concentration of 10 mM, then diluted 100× in physiologic buffer. The inhibitory assay is initiated by the addition of the substituted oxadiazolidinedione (1–100 μM final concentration, maximun DMSO concentration of 0.2%) in a pH 6.6 buffer containing 140 nM recombinant human plasminogen activator inhibitor-1 (PAI-1; Molecular Innovations, Royal Oak, Mich.). Following a 1 hour incubation at room temperature, 70 nM of recombinant human tissue plasminogen activator (tPA) is added, and the combination of the substituted oxadiazolidinedione, PAI-1 and tPA is incubated for an additional 30 minutes. Following the second incubation, Spectrozyme-tPA (American Diagnostica, Greenwich, Conn.), a chromogenic substrate for tPA, is added and absorbance read at 405 nm at 0 and 60 minutes. Relative PAI-1 inhibition is equal to the residual tPA activity in the presence of the test compound and PAI-1. Control treatments include the complete inhibition of tPA by PAI-1 at the molar ratio employed (2:1), and the absence of any effect of the substituted oxadiazolidinedione on tPA alone.
With `CC(C)(C)c1ccc(COc2ccc3c(c2)c(Cn2oc(=O)[nH]c2=O)cn3Cc2ccccc2)cc1` [Compound 1, 2-({1-benzyl-5-[(4-tert-butylbenzyl)oxy]-1H-indol-3-yl}methyl)-1,2,4-oxadiazolidine-3,5-dione], the inhibition at 100 µM was found to be 96%.

With `O=c1[nH]c(=O)n(Cc2cn(Cc3ccccc3)c3ccc(OCc4cccc(C(F)(F)F)c4)cc23)o1` [Compound 10, 2-[(1-benzyl-5-{[3-(trifluoromethyl)benzyl]oxy}-1H-indol-3-yl)methyl]-1,2,4-oxadiazolidine-3,5-dione], the inhibition at 100 µM came to 92%. In the case of “2-({4′-[(4-tert-butylbenzyl)oxy]-1,1′-biphenyl-3-yl}methyl)-1,2,4-oxadiazolidine-3,5-dione [Compound 48]”, the “% Inhibition @ 100 μM” value amounted to 23%.

As for `O=c1[nH]c(=O)n(Cc2cc(OCc3cccc(Br)c3)cc(OCc3cccc(Br)c3)c2)o1` [Compound 74, 2-{3,5-bis[(3-bromobenzyl)oxy]benzyl}-1,2,4-oxadiazolidine-3,5-dione], the inhibition at 100 µM stood at 92%. On the same count and under the same terms, in the case of `C#CCn1cc(Cn2oc(=O)[nH]c2=O)c2cc(OCc3cc(C(F)(F)F)cc(C(F)(F)F)c3)ccc21` [Compound 15, 2-{[5-{[3,5-bis(trifluoromethyl)benzyl]oxy}-1-(2-propynyl)-1H-indol-3-yl]methyl}-1,2,4-oxadiazolidine-3,5-dione] it was 91%; in that of `O=c1[nH]c(=O)n(Cc2cccc(-c3cccc(OCc4ccc5ccccc5c4)c3)c2)o1` [Compound 44, 2-{[3′-(2-naphthylmethoxy)-1,1′-biphenyl-3-yl]methyl}-1,2,4-oxadiazolidine-3,5-dione], 28%. On the same count and under the same terms, in the case of `C=CCn1cc(Cn2oc(=O)[nH]c2=O)c2cc(OCc3ccccc3Cl)ccc21` [Compound 33, 2-({1-allyl-5-[(2-chlorobenzyl)oxy]-1H-indol-3-yl}methyl)-1,2,4-oxadiazolidine-3,5-dione] it was 91%; in that of `O=c1[nH]c(=O)n(Cc2cn(Cc3ccccc3)c3ccc(OCc4ccc(C(F)(F)F)cc4)cc23)o1` [Compound 13, 2-[(1-benzyl-5-{[4-(trifluoromethyl)benzyl]oxy}-1H-indol-3-yl)methyl]-1,2,4-oxadiazolidine-3,5-dione], 100%. As for `O=c1[nH]c(=O)n(Cc2cccc(C#CCOc3cc(Cl)cc(Cl)c3)c2)o1` [Compound 68, 2-{3-[3-(3,5-dichlorophenoxy)prop-1-ynyl]benzyl}-1,2,4-oxadiazolidine-3,5-dione], the inhibition at 100 µM worked out at 93%. Same read-out and setting: in the case of `COc1cc(Cn2oc(=O)[nH]c2=O)cc(OCc2cccc(Cl)c2)c1OCc1cccc(Cl)c1` [Compound 78, 2-{3,4-bis[(3-chlorobenzyl)oxy]-5-methoxybenzyl}-1,2,4-oxadiazolidine-3,5-dione] it was 91%; in that of `C#CCn1cc(Cn2oc(=O)[nH]c2=O)c2cc(OCc3ccccc3Cl)ccc21` [Compound 17, 2-{[5-[(2-chlorobenzyl)oxy]-1-(2-propynyl)-1H-indol-3-yl]methyl}-1,2,4-oxadiazolidine-3,5-dione], 49%; in that of `O=c1[nH]c(=O)n(Cc2cccc(-c3cccc(OCc4ccccc4)c3)c2)o1` [Compound 40, 2-{[3′-(benzyloxy)-1,1′-biphenyl-3-yl]methyl}-1,2,4-oxadiazolidine-3,5-dione], 96%.

Regarding `COc1cc(Cn2oc(=O)[nH]c2=O)cc(OCc2cccc(Br)c2)c1OCc1cccc(Br)c1` [Compound 79, 2-{3,4-bis[(3-bromobenzyl)oxy]-5-methoxybenzyl}-1,2,4-oxadiazolidine-3,5-dione], the inhibition at 100 µM was 87%.

Take `O=c1[nH]c(=O)n(Cc2cccc(-c3cccc(OCc4cc(C(F)(F)F)cc(C(F)(F)F)c4)c3)c2)o1` [Compound 38, 2-[(3′-{[3,5-bis(trifluoromethyl)benzyl]oxy}-1,1′-biphenyl-3-yl)methyl]-1,2,4-oxadiazolidine-3,5-dione]: the inhibition at 100 µM was found to be 69%.

Regarding `CC(C)(C)c1ccc(OCC#Cc2cccc(Cn3oc(=O)[nH]c3=O)c2)cc1` [Compound 65, 2-{3-[3-(4-tert-butylphenoxy)prop-1-ynyl]benzyl}-1,2,4-oxadiazolidine-3,5-dione], the inhibition at 100 µM came out at 77%. Turning to `C=CCn1cc(Cn2oc(=O)[nH]c2=O)c2cc(OCc3cccc(Br)c3)ccc21` [Compound 27, 2-({1-allyl-5-[(3-bromobenzyl)oxy]-1H-indol-3-yl}methyl)-1,2,4-oxadiazolidine-3,5-dione], the inhibition at 100 µM was found to be 100%. As for `Cc1cccc(COc2ccc(Cn3oc(=O)[nH]c3=O)cc2OCc2cccc(C)c2)c1` [Compound 87, 2-{3,4-bis[(3-methylbenzyl)oxy]benzyl}-1,2,4-oxadiazolidine-3,5-dione], the inhibition at 100 µM worked out at 92%. As for `Cc1ccc(COc2cccc(-c3cccc(Cn4oc(=O)[nH]c4=O)c3)c2)cc1` [Compound 45, 2-({3′-[(4-methylbenzyl)oxy]-1,1′-biphenyl-3-yl}methyl)-1,2,4-oxadiazolidine-3,5-dione], the inhibition at 100 µM amounted to 94%. Regarding `COc1cc(Cn2oc(=O)[nH]c2=O)cc(OCc2cccc(C)c2)c1OCc1cccc(C)c1` [Compound 77, 2-{3-methoxy-4,5-bis[(3-methylbenzyl)oxy]benzyl}-1,2,4-oxadiazolidine-3,5-dione], the inhibition at 100 µM came out at 88%. Same read-out and setting: in the case of `O=c1[nH]c(=O)n(Cc2cn(Cc3ccccc3)c3ccc(OCc4cccc(Cl)c4)cc23)o1` [Compound 9, 2-({1-benzyl-5-[(3-chlorobenzyl)oxy]-1H-indol-3-yl}methyl)-1,2,4-oxadiazolidine-3,5-dione] it was 92%.

“2-[(4′-{[3,5-bis(trifluoromethyl)benzyl]oxy}-1,1′-biphenyl-3-yl)methyl]-1,2,4-oxadiazolidine-3,5-dione [Compound 51]”: the “% Inhibition @ 100 μM” value is given as 65%. Take `O=c1[nH]c(=O)n(Cc2cccc(-c3cccc(OCc4c(Cl)cccc4Cl)c3)c2)o1` [Compound 47, 2-({3′-[(2,6-dichlorobenzyl)oxy]-1,1′-biphenyl-3-yl}methyl)-1,2,4-oxadiazolidine-3,5-dione]: the inhibition at 100 µM was determined as 88%.

Another assay deals with human PAI-1 (Homo sapiens, UniProt P05121). Kind of assay: Assay for determining IC50 of inhibition of PAI-1 (active PAI-1 bound to tPA-coated plate, 33B8 antibody detection). To be noted: values carry suffix (K), not defined in the patent. The class given is biochemical. On the procedure:
This assay is based upon the non-SDS dissociable interaction between tPA and active PAI-1. Assay plates are initially coated with human tPA (10 μg/ml). Substituted oxadiazolidinediones of the present invention are dissolved in DMSO at 10 mM, then diluted with physiologic buffer (pH 7.5) to a final concentration of 1–50 μM. Test compounds are incubated with human PAI-1 (50 ng/ml) for 15 minutes at room temperature. The tPA-coated plate is washed with a solution of 0.05% Tween 20 and 0.1% BSA, then the plate is blocked with a solution of 3% BSA. An aliquot of the substituted oxadiazolidinedione/PAI-1 solution is then added to the tPA-coated plate, incubated at room temperature for 1 hour, and washed. Active PAI-1 bound to the plate is assessed by adding an aliquot of a 1:1000 dilution of the 33B8 monoclonal antibody against human PAI-1, and incubating the plate at room temperature for 1 hour (Molecular Innovations, Royal Oak, Mich.). The plate is again washed, and a solution of goat anti-mouse IgG-alkaline phosphatase conjugate is added at a 1:50,000 dilution in goat serum. The plate is incubated 30 minutes at room temperature, washed, and a solution of alkaline phosphatase substrate is added. The plate is incubated 45 minutes at room temperature, and color development is determined at OD405nm. The quantitation of active PAI-1 bound to tPA at varying concentrations of the substituted oxadiazolidinedione is used to determine the IC50. Results are analyzed using a logarithmic best-fit equation. The assay sensitivity is 5 ng/ml of human PAI-1 as determined from a standard curve ranging from 0–100 ng/ml.
Molecule `CC(C)(C)c1ccc(COc2ccc3c(c2)c(Cn2oc(=O)[nH]c2=O)cn3Cc2ccccc2)cc1` [Compound 1, 2-({1-benzyl-5-[(4-tert-butylbenzyl)oxy]-1H-indol-3-yl}methyl)-1,2,4-oxadiazolidine-3,5-dione] yielded an IC50 of 13.8 µM. Molecule `O=c1[nH]c(=O)n(Cc2cn(Cc3ccccc3)c3ccc(OCc4cccc(C(F)(F)F)c4)cc23)o1` [Compound 10, 2-[(1-benzyl-5-{[3-(trifluoromethyl)benzyl]oxy}-1H-indol-3-yl)methyl]-1,2,4-oxadiazolidine-3,5-dione] yielded an IC50 of 9.36 µM. Molecule `O=c1[nH]c(=O)n(Cc2cn(Cc3ccccc3)c3ccc(OCc4cccc(Cl)c4)cc23)o1` [Compound 9, 2-({1-benzyl-5-[(3-chlorobenzyl)oxy]-1H-indol-3-yl}methyl)-1,2,4-oxadiazolidine-3,5-dione] yielded a half-inhibitory concentration (IC50) of 26.5 µM.
